This is an account of results in ChEMBL document CHEMBL1687734, “Pharmacokinetics of EDP-420 after multiple oral doses in healthy adult volunteers and in a bioequivalence study” (Antimicrob Agents Chemother, 2009).

Type in all cases: ADME, organism-based
Data set [1] can be described thus: Drug concentration in Alveolar macrophage of healthy human at 500 mg, po administered as single dose after 24 hrs. The conditions noted are these: alveolar macrophages, read-out: Drug uptake.
The nature of data set [2]: Drug concentration in Epithelial lining fluid of healthy human at 500 mg, po administered as single dose after 24 hrs. The following applies: read-out: Drug uptake.
Data set [3] relates to Homo sapiens. The experiment in a line: Ratio of AUC (0 to 24 hrs) in healthy human plasma assessed as EDP-420 9-keto level at 200 mg, po once daily for 3 days measured on day 3 to AUC (0 to 24 hrs) in healthy human plasma assessed as EDP-420 9-keto level at 200 mg, po once daily for 3 days measured on day 1. The conditions noted are these: in vivo.
Data set [4] concerns Homo sapiens. The experiment in a line: AUC (0 to last) in healthy human plasma assessed as EDP-420 9-keto level at 200 mg, po once daily for 3 days measured after 3 days. Details: dose 200 mg, time 0 - last, route oral. The conditions noted are these: in vivo, 72 h.
The test system of data set [5] is Homo sapiens. The experiment in a line: Ratio of drug concentration in high-fat fed healthy human plasma at 200 mg, po administered as single dose of two-100 mg capsules to drug concentration in high-fat fed healthy human plasma assessed as EDP-420 9-keto level at 200 mg, po administered as single dose of two-100 mg capsules. The following applies: in vivo.
Data set [6] has as its system Homo sapiens. The experiment in a line: Half life in 8 hrs fasted healthy human plasma assessed as EDP-420 9-keto level at 200 mg, po administered as single dose of two-100 mg capsules. The following applies: in vivo.
Data set [7] has as its system Homo sapiens. The experiment in a line: Cmax in high-fat fed healthy human plasma assessed as EDP-420 9-keto level at 200 mg, po administered as single dose of two-100 mg capsules by HPLC-tandem mass spectrometry. Also on record: dose 200 mg, route oral. The following applies: in vivo.
The test system of data set [8] is Homo sapiens. The experiment in a line: AUC (0 to last) in healthy human plasma assessed as EDP-420 9-keto level at 200 mg, po once daily for 3 days measured after 1 day. Details: dose 200 mg, time 0 - last, route oral. The following applies: in vivo, 24 h.
Data set [9] concerns Homo sapiens. The experiment in a line: Tmax in 8 hrs fasted healthy human plasma assessed as EDP-420 9-keto level at 200 mg, po administered as single dose of two-100 mg capsules. The conditions noted are these: in vivo.
Data set [10] concerns Homo sapiens. The experiment in a line: Cmax in 8 hrs fasted healthy human plasma assessed as EDP-420 9-keto level at 200 mg, po administered as single dose of suspension by HPLC-tandem mass spectrometry. Details: dose 200 mg, route oral. The following applies: in vivo.
Data set [11] relates to Homo sapiens. The experiment in a line: AUC (0 to infinity) in 8 hrs fasted healthy human plasma assessed as EDP-420 9-keto level at 200 mg, po administered as single dose of suspension. The following applies: in vivo. Details: dose 200 mg, time infinity, route oral.
Data set [12] relates to Homo sapiens. The experiment in a line: Half life in high-fat fed healthy human plasma assessed as EDP-420 9-keto level at 200 mg, po administered as single dose of two-100 mg capsules. The conditions noted are these: in vivo.
For data set [13], the system named is Homo sapiens. The experiment in a line: AUC (0 to last) in healthy human plasma assessed as EDP-420 9-keto level at 400 mg administered once on day 1 followed by 200 mg once daily for 2 days during 3 days of treatment measured after 3 days. Also on record: dose 400 mg, time 0 - last. The conditions noted are these: in vivo, 72 h.
Data set [14] concerns Homo sapiens. The experiment in a line: Tmax in healthy human plasma assessed as EDP-420 9-keto level at 200 mg, po once daily for 3 days measured after 1 day. The conditions noted are these: in vivo, 24 h.
Data set [15] has as its system Homo sapiens. The experiment in a line: Half life in healthy human plasma assessed as EDP-420 9-keto level at 400 mg administered once on day 1 followed by 200 mg once daily for 2 days during 3 days of treatment measured after 3 days. The following applies: in vivo, 72 h.
In data set [16] the test system is Homo sapiens. The experiment in a line: Cmax in healthy human plasma assessed as EDP-420 9-keto level at 200 mg, po once daily for 3 days measured after 3 days by HPLC-tandem mass spectrometry. Details: dose 200 mg, route oral. The conditions noted are these: in vivo, 72 h.
The subject of data set [17] is Homo sapiens. The experiment in a line: Half life in healthy human plasma assessed as EDP-420 9-keto level at 200 mg, po administered as once daily for 3 days measured after 3 days. The following applies: in vivo, 72 h.
Data set [18] deals with Homo sapiens. The experiment in a line: Cmax in healthy human plasma assessed as EDP-420 9-keto level at 200 mg, po once daily for 3 days measured after 1 day by HPLC-tandem mass spectrometry. Also on record: dose 200 mg, route oral. The following applies: in vivo, 24 h.
Data set [19] relates to Homo sapiens. The experiment in a line: Cmax in 8 hrs fasted healthy human plasma assessed as EDP-420 9-keto level at 200 mg, po administered as single dose of two-100 mg capsules by HPLC-tandem mass spectrometry. Also on record: dose 200 mg, route oral. The conditions noted are these: in vivo.
Data set [20] has as its system Homo sapiens. The experiment in a line: AUC (0 to last) in 8 hrs fasted healthy human plasma assessed as EDP-420 9-keto level at 200 mg, po administered as single dose of suspension. Also on record: dose 200 mg, time 0 - last, route oral. The following applies: in vivo.
Data set [21] relates to Homo sapiens. The experiment in a line: Ratio of AUC (0 to 24 hrs) in healthy human plasma assessed as EDP-420 9-keto level at loading dose of 400 mg/day, po administered as single dose measured on 1 day to AUC (0 to 24 hrs) in healthy human plasma assessed as EDP-420 9-keto level at 400 mg administered once on day 1 followed by 200 mg once daily for 2 days during 3 days of treatment measured on day 3. The conditions noted are these: in vivo.

The subject of data set [22] is Homo sapiens. The experiment in a line: AUC (0 to last) in high-fat fed healthy human plasma assessed as EDP-420 9-keto level at 200 mg, po administered as single dose of two-100 mg capsules. The following applies: in vivo. Details: dose 200 mg, route oral, time 0 - last.
Data set [23] has as its system Homo sapiens. The experiment in a line: Cmax in healthy human plasma assessed as EDP-420 9-keto level at loading dose of 400 mg/day, po once daily for 3 days measured after 1 day by HPLC-tandem mass spectrometry. Details: dose 400 mg/day, route oral. The following applies: in vivo, 24 h.
For data set [24], the system named is Homo sapiens. The experiment in a line: Ratio of drug concentration in 8 hrs fasted healthy human plasma at 200 mg, po administered as single dose of suspension to drug concentration in 8 hrs fasted healthy human plasma assessed as EDP-420 9-keto level at 200 mg, po administered as single dose of suspension. The conditions noted are these: in vivo.
Data set [25] concerns Homo sapiens. The experiment in a line: AUC (0 to infinity) in healthy human plasma assessed as EDP-420 9-keto level at 200 mg, po once daily for 3 days measured after 3 days. Details: dose 200 mg, time infinity, route oral. The following applies: in vivo, 72 h.
The test system of data set [26] is Homo sapiens. The experiment in a line: Cmax in healthy human plasma assessed as EDP-420 9-keto level at 400 mg administered once on day 1 followed by 200 mg once daily for 2 days during 3 days of treatment measured after 3 days by HPLC-tandem mass spectrometry. The following applies: in vivo, 72 h. Also on record: dose 400 mg.
Data set [27] relates to Homo sapiens. The experiment in a line: AUC (0 to infinity) in high-fat fed healthy human plasma assessed as EDP-420 9-keto level at 200 mg, po administered as single dose of two-100 mg capsules. Also on record: dose 200 mg, time infinity, route oral. The following applies: in vivo.
The test system of data set [28] is Homo sapiens. The experiment in a line: AUC (0 to infinity) in healthy human plasma assessed as EDP-420 9-keto level at 400 mg administered once on day 1 followed by 200 mg once daily for 2 days during 3 days of treatment measured after 3 days. Also on record: dose 400 mg, time infinity. The conditions noted are these: in vivo, 72 h.
Data set [29] has as its system Homo sapiens. The experiment in a line: AUC (0 to last) in 8 hrs fasted healthy human plasma assessed as EDP-420 9-keto level at 200 mg, po administered as single dose of two-100 mg capsules. Details: dose 200 mg, time 0 - last, route oral. The following applies: in vivo.
The subject of data set [30] is Homo sapiens. The experiment in a line: Half life in 8 hrs fasted healthy human plasma assessed as EDP-420 9-keto level at 200 mg, po administered as single dose of suspension. The following applies: in vivo.
The test system of data set [31] is Homo sapiens. The experiment in a line: Tmax in 8 hrs fasted healthy human plasma assessed as EDP-420 9-keto level at 200 mg, po administered as single dose of suspension. The conditions noted are these: in vivo.
Data set [32] concerns Homo sapiens. The experiment in a line: Tmax in healthy human plasma assessed as EDP-420 9-keto level at 200 mg, po once daily for 3 days measured after 3 days. The conditions noted are these: in vivo, 72 h.
In data set [33] the test system is Homo sapiens. The experiment in a line: Tmax in healthy human plasma assessed as EDP-420 9-keto level at loading dose of 400 mg/day, po once daily for 3 days measured after 1 day. The following applies: in vivo, 24 h.
The subject of data set [34] is Homo sapiens. The experiment in a line: AUC (0 to infinity) in 8 hrs fasted healthy human plasma assessed as EDP-420 9-keto level at 200 mg, po administered as single dose of two-100 mg capsules. Details: dose 200 mg, time infinity, route oral. The conditions noted are these: in vivo.
Data set [35] has as its system Homo sapiens. The experiment in a line: Tmax in high-fat fed healthy human plasma assessed as EDP-420 9-keto level at 200 mg, po administered as single dose of two-100 mg capsules. The following applies: in vivo.

Consider `CC[C@H]1OC(=O)[C@H](C)[C@@H](O[C@H]2C[C@@](C)(OC)[C@@H](O)[C@H](C)O2)[C@H](C)[C@@H](O[C@@H]2O[C@H](C)C[C@H](N(C)C)[C@H]2O)[C@](C)(O)C[C@@H](C)CN(C)[C@H](C)[C@@H](O)[C@]1(C)O` [AZITHROMYCIN], for which the concentration at 24 h was 30800 ng/mL in [1] and 90 ng/mL in data set [2].
Regarding `CC[C@H]1OC(=O)[C@H](C)C(=O)[C@H](C)[C@@H](O[C@@H]2O[C@H](C)C[C@H](N(C)C)[C@H]2O)[C@@]2(C)C[C@@H](C)C(=O)[C@H](C)[C@@H](OC/C(=N\OCc3ccc(-n4cccn4)nc3)CO2)[C@]1(C)O`, the “Ratio AUC” value was found to be 1.76 in data set [3] and 1.11 in [21]. The AUC in data set [4] is 2134 ng·h/mL; in [8], 461 ng·h/mL; in data set [11] it was 842 ng·h/mL; in data set [13], 2154 ng·h/mL; in data set [20], 754 ng·h/mL; in [22], 1220 ng·h/mL. Further, the AUC turned out to be 2209 ng·h/mL in data set [25]; 1326 ng·h/mL in data set [27]; 2228 ng·h/mL in data set [28]; 745 ng·h/mL in data set [29]; 837 ng·h/mL in data set [34]. Also, the Ratio in data set [5] turned out to be 0.16; in data set [24], 0.1. Moreover, the t1/2 in data set [6] was determined as 30.5 h; in data set [12] it was 28.4 h; in data set [15], 27.8 h; in data set [17], 29.5 h; in [30], 29.5 h. The Cmax in [7] worked out at 36.1 ng/mL; in data set [10], 24.9 ng/mL; in [16], 46 ng/mL; in data set [18] it was 30.5 ng/mL; in [19], 23.7 ng/mL; in [23], 49 ng/mL. In data set [26], the Cmax came out at 47.6 ng/mL. Moreover, the Tmax in [9] was found to be 5 h; in data set [14], 5 h; in data set [31], 5 h; in data set [32], 5 h; in [33], 5 h; in data set [35] it was 6 h.

What is called AUC is the area under the concentration-time curve, a measure of exposure. What is called Cmax is the highest concentration seen after dosing. In general, Tmax refers to the time at which the peak concentration occurs.
